Measured values reported in US4282244A, “Optical isomers of 4-amino-N-(1-cyclohexyl-3-pyrrolidinyl)-N-methylbenzamide” (A. H. Robins Company, Inc., priority 1980, dated 1981).
Counter-ions that a name gives are not always drawn.

Tests used:
[1] = acute toxicity (LD50), mouse; type: in vivo; settings: in vivo, fumarate salt, expressed as free base, read-out: LD50 (95% Confidence Limits)
Method: (§1) The acute toxicities of the ±-racemate, the (+)-isomer and the (-)-isomer were conducted with the fumarate salts and probit analysis (Finney, D. J., Statistical Methods in Biological Assay, Hafner Pub. Co., N.Y., 2nd. Ed., 1964) was employed for the statistical treatment of the mortality data.

[2] = acute toxicity (LD50), rat; type: in vivo; settings: in vivo, fumarate salt, expressed as free base, read-out: LD50 (95% Confidence Limits)
Method: as §1

[3] = cataleptic effects (Tedeschi et al.); type: in vivo, rat; settings: in vivo, rat, expressed as free base; for TD50: footnote c, read-out: Neurotoxic dose level evidenced by seizures in test animals; for NOAEL: fumarate salt
From the text: (§2) The procedure used for determing cataleptic effects of the fumarate salts was based on that of Tedeschi et al., Arch. Int. Pharmacodyn.

catalepsy = assay: cataleptic effects (Tedeschi et al.); type: in vivo, rat
From the text: as §2

[4] = system: Chlorpromazine-Induced Catalepsy; assay: Effects on Chlorpromazine-Induced Catalepsy; type: in vivo, rat; settings: Chlorpromazine 4 mg/kg IP, then saline IP after one hour
Method: (§3) (+)-4-Amino-N-(1-cyclohexyl-3-pyrrolidinyl)-N-methylbenzamide is useful in reducing the cataleptic side effects of known therapeutically effective drugs such as chlorpromazine [2-chloro-10-(3-dimethylaminopropyl)phenothiazine] and metoclopramide (N-diethylaminoethyl 2-methoxy-4-amino-5-chlorophenylcarboxamide). The effectiveness is shown in Tables IV and V. In each test the rat was administered a 100% effective cataleptic dose of the test drug followed one hour later by an effective dose of (+)-4-amino-N-(1-cyclohexyl-3-pyrrolidinyl)-N-methylbenzamide.

[5] = system: Metoclopramide-Induced Catalepsy; assay: Effects on Metoclopramide-Induced Catalepsy; type: in vivo, rat; settings: Metoclopramide 40 mg/kg IP, then saline IP after one hour
Method: as §3

For `CN(C(=O)c1ccc(N)cc1)C1CCN(C2CCCCC2)C1` (racemic) [± racemate, 4-amino-N-(1-cyclohexyl-3-pyrrolidinyl)-N-methylbenzamide], the LD50 ([1]; ip, I.P.) was 90.2 mg/kg, the LD50 ([1]; po, P.O.) was 181 mg/kg and the LD50 ([2]; ip, I.P.) was 111 mg/kg. It also gave an LD50 ([2]; po, P.O.) of 305 mg/kg, a TD50 ([3]; IP) of 100 mg/kg and an NOAEL ([3]; IP) of 100 mg/kg. For the same compound, the NOAEL ([3]; PO) was 200 mg/kg and the cataleptic properties (catalepsy) was “notable absence of cataleptic properties”.
In the case of `CN(C)CCCN1c2ccccc2Sc2ccc(Cl)cc21` [Chlorpromazine, 2-chloro-10-(3-dimethylaminopropyl)phenothiazine, reference compound], the “Percent of Rats Cataleptic” value ([4]; 0.5 h after initial treatment) is reported as 100%, the “Percent of Rats Cataleptic” value ([4]; 1.0 h after initial treatment) is reported as 100% and the “Percent of Rats Cataleptic” value ([4]; 1.5 h after initial treatment) is reported as 100%. The “Percent of Rats Cataleptic” value ([4]; 2.0 h after initial treatment) was 100%, the “Percent of Rats Cataleptic” value ([4]; 3.0 h after initial treatment) was 100% and the “Percent of Rats Cataleptic” value ([4]; 4.0 h after initial treatment) was 100%. The “Percent of Rats Cataleptic” value ([4]; 5.0 h after initial treatment) was 100% and the “Percent of Rats Cataleptic” value ([4]; 6.0 h after initial treatment) was 100%.
With `CCN(CC)CCNC(=O)c1cc(Cl)c(N)cc1OC` [Metoclopramide, N-diethylaminoethyl 2-methoxy-4-amino-5-chlorophenylcarboxamide, reference compound] the “Percent of Rats Cataleptic” value ([5]; 0.5 h after initial treatment) was 100%, the “Percent of Rats Cataleptic” value ([5]; 1.0 h after initial treatment) was 100% and the “Percent of Rats Cataleptic” value ([5]; 1.5 h after initial treatment) was 100%. For the same compound, the “Percent of Rats Cataleptic” value ([5]; 2.0 h after initial treatment) was 100%, the “Percent of Rats Cataleptic” value ([5]; 3.0 h after initial treatment) was 100% and the “Percent of Rats Cataleptic” value ([5]; 4.0 h after initial treatment) was 100%. The “Percent of Rats Cataleptic” value ([5]; 5.0 h after initial treatment) was 100% and the “Percent of Rats Cataleptic” value ([5]; 6.0 h after initial treatment) was 100%.
`CN(C(=O)c1ccc(N)cc1)C1CCN(C2CCCCC2)C1` (single isomer, unassigned; (-)) [(-)-isomer, (-)-4-Amino-N-(1-cyclohexyl-3-pyrrolidinyl)-N-methyl benzamide Fumarate] gave an LD50 ([1]; ip, I.P.) of 103 mg/kg, an LD50 ([1]; po, P.O.) of 241 mg/kg and an LD50 ([2]; ip, I.P.) of 116 mg/kg. For the same compound, the LD50 ([2]; po, P.O.) was 410 mg/kg and the TD50 ([3]; IP) was 100 mg/kg.
